Tested on: Amidinohydrolase
Assay: Enzyme characterisation (kinetics and inhibition) with whole cells
Type: biochemical, Pseudomonas aeruginosa (DSM 10581)
Method: Die Enzymcharakterisierung wurde mit ganzen Zellen von Pseudomonas aeruginosa (DSM 10581) durchgeführt. Dabei betrug die optische Dichte der Zellsuspension OD600 = 17. Der Einfluss der Temperatur wurde in 100 mM Phosphatpuffer (pH 7 - 8) bei einer Substratkonzentration von 25 mM L-α-Chlor-δ-guanidinvaleriansäure bestimmt. Dabei zeigte sich, dass bei 37 °C eine um 40% höhere Aktivität als bei 30 °C erhalten wurde. Der Einfluss des pH-Wertes wurde in gleichem Puffer, bei gleicher Substratkonzentration und bei einer Temperatur von 37 °C ermittelt. Gemessen wurde die Aktivität bei pH 7; pH 7,5; pH 8,0, pH 8,5. Dabei wurde festgestellt, dass das pH-Optimum bei pH 8,5 lag. Durch Einsatz von verschiedenen Konzentrationen an L-α-Chlor-δ-guanidinvaleriansäure wurde der KM-Wert und Vmax bei einer Temperatur von 37 °C, in 100 mM Phosphatpuffer (pH 8,5), bestimmt. Der KM-Wert betrug 85,2 mmol / l und Vmax 0,38 mmol / l / min (Fig. 3).
Durch Zugabe von verschiedenen Konzentrationen an L-α-Chlor-δ-aminovaleriansäure (hergestellt aus Ornithin analog zu Beispiel 6) konnte eine Hemmung nachgewiesen werden.

`NCCC[C@H](Cl)C(=O)O` [L-α-Chlor-δ-aminovaleriansäure] was tested, and the Hemmung (inhibitor at a concentration of 50 mM (Fig. 4)) was “vollständige Hemmung”.

With `N=C(N)NCCC[C@H](Cl)C(=O)O` [L-α-Chlor-δ-guanidinvaleriansäure] the “Hemmung der Amidinohydrolase” value (listed as a property of the enzyme, no concentration given) was “gehemmt”, the Vmax (substrate of the enzyme, 37 °C, 100 mM Phosphatpuffer (pH 8,5), whole cells, OD600 = 17) was 0,38 mmol / l / min and the Km (substrate of the enzyme, 37 °C, 100 mM Phosphatpuffer (pH 8,5), whole cells, OD600 = 17, read-out: KM-Wert) was 85.2 mM.

Reference: patent EP0912751B1, “PROCESS FOR PREPARATION OF D-PROLINE D[…] MEANS OF MICRO-ORGANISMS” (LONZA AG, priority 1996, dated 1998)
